From BindingDB's records for doi:10.1006/abio.2001.5466 (Kosan Biosciences, 2002) come the findings set out here.

SMILES strings stand for the structures. “And” between values parts separate entries of the source, which are not always exact repeats. Equal values may be shown once.

The assay concerns the target T1, Promotilin (Homo sapiens, UniProt P12872).
T1 sequence (P12872 whole entry): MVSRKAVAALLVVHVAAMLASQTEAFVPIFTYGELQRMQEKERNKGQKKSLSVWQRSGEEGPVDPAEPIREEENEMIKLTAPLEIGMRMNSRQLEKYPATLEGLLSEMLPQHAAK
In turn, `CC[C@H]1OC(=O)[C@H](C)[C@@H](O[C@H]2C[C@@](C)(OC)[C@@H](O)[C@H](C)O2)[C@H](C)[C@@H](O[C@H]2O[C@@H](C)C[C@@H](N(C)C)[C@@H]2O)[C@](C)(O)C[C@@H](C)C(=O)[C@H](C)[C@@H](O)[C@]1(C)O` [(3R,4S,5S,6R,7R,9R,11R,12R,13S,14R)-6-{[(2R,3S,4R,6S)-4-(dimethylamino)-3-hydroxy-6-methyloxan-2-yl]oxy}-14-ethyl-7,12,13-trihydroxy-4-{[(2R,4R,5S,6S)-5-hydroxy-4-methoxy-4,6-dimethyloxan-2-yl]oxy}-3,5,7,9,11,13-hexamethyl-1-oxacyclotetradecane-2,10-dione] yielded a Ki of 1290 nM.

`CC[C@H](C)[C@H](NC(=O)[C@@H]1CCCN1C(=O)[C@@H](NC(=O)[C@@H](N)Cc1ccccc1)C(C)C)C(=O)N[C@@H](Cc1ccccc1)C(=O)N[C@H](C(=O)N[C@@H](Cc1ccc(O)cc1)C(=O)NCC(=O)N[C@@H](CCC(=O)O)C(=O)N[C@@H](CC(C)C)C(=O)N[C@@H](CCC(N)=O)C(=O)N[C@@H](CCCNC(=N)N)C(=O)N[C@@H](CCSC)C(=O)N[C@@H](CCC(N)=O)C(=O)N[C@@H](CCC(=O)O)C(=O)N[C@@H](CCCCN)C(=O)N[C@@H](CCC(=O)O)C(=O)N[C@@H](CCCNC(=N)N)C(=O)N[C@@H](CC(N)=O)C(=O)N[C@@H](CCCCN)C(=O)NCC(=O)N[C@@H](CCC(N)=O)C(=O)O)[C@@H](C)O` [CAS_52906-92-0] displayed a Ki of 5.25 nM.

On to `CC[C@H]1OC(=O)[C@H](C)[C@@H](O[C@H]2C[C@@](C)(OC)[C@@H](O)[C@H](C)O2)[C@H](C)[C@@H](O[C@@H]2O[C@H](C)C[C@H](N(C)C)[C@H]2O)[C@@]2(C)CC(C)=C(O2)[C@H](C)[C@@H](O)[C@]1(C)O` [Erythromycin-A enol ether], for which the Ki is 19.1 nM and 47.9 nM.
